Experiments:
factor Xa, human = factor Xa, human (Homo sapiens, UniProt P00742); assay: Inhibition of factor Xa (table title: Affinity to receptors); type: biochemical
Excerpt: The inhibition of factor Xa by the compounds according to the invention and the measurement of the anticoagulant and antithrombotic activity can be determined by conventional in-vitro or in-vivo methods. A suitable method is described, for example, by J. Hauptmann et al. in Thrombosis and Haemostasis 1990, 63, 220-223.
The inhibition of factor Xa can be measured, for example, by the method of T. Hara et al. in Thromb. Haemostas. 1994, 71, 314-319.

TF/VIIa = TF/VIIa (Homo sapiens, UniProt P08709); assay: Inhibition of TF/VIIa (table title: Affinity to receptors); type: biochemical
Sequence of TF/VIIa (P08709 213-466 limits assumed): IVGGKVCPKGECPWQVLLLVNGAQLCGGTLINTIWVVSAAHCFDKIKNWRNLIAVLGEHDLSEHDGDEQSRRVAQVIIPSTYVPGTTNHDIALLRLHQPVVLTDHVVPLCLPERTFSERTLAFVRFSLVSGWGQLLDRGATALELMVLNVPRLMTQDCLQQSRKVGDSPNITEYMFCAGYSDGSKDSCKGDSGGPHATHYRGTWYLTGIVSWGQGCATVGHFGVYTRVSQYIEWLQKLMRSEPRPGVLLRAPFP
Sequence of TF/VIIa (P08709 61-212 limits assumed): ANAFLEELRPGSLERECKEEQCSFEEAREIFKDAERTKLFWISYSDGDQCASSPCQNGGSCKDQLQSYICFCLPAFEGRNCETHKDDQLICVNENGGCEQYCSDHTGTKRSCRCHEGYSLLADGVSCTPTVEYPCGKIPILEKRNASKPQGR
Sequence of TF/VIIa (P13726 33-295 partner): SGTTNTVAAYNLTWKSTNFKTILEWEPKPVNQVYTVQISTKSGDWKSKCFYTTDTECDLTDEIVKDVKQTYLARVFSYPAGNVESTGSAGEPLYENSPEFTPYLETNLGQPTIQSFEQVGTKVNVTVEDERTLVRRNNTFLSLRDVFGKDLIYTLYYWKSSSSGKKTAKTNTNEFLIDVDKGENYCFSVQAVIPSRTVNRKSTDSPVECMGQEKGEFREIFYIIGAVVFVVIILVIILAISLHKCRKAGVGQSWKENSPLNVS
Excerpt: The inhibition of factor VIIa by the compounds according to the invention and the measurement of the anticoagulant and antithrombotic activity can be determined by conventional in-vitro or in-vivo methods. A conventional method for the measurement of the inhibition of factor VIIa is described, for example, by H. F. Ronning et al. in Thrombosis Research 1996, 84, 73-81.

Sequence of factor Xa, human (P00742 235-488 limits assumed): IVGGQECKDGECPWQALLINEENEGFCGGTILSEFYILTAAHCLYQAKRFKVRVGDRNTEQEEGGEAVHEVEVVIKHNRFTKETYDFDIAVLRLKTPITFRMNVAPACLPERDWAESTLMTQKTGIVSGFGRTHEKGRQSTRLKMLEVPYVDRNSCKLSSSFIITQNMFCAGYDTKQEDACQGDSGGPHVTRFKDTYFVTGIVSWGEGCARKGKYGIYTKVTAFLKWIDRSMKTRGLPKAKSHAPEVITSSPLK
Sequence of factor Xa, human (P00742 41-179 limits assumed): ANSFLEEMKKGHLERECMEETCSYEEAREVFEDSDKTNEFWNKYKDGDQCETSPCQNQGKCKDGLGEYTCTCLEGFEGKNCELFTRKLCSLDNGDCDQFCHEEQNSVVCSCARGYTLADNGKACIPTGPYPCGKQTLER

`CN(CC(=O)Nc1ccc(-c2ccccc2S(N)(=O)=O)cc1)c1cccc(C(=N)N)c1` [N-(2′-aminosulfonylbiphenyl-4-yl)-2-[(3-amidinophenyl)-N-methylamino]acetamide] was tested, and the IC50 (factor Xa, human) was 0.01 µM and the IC50 (TF/VIIa) was 0.025 µM.
`CCCN(CC(=O)Nc1ccc(-c2ccccc2S(C)(=O)=O)cc1)c1cccc(C(=N)N)c1` [N-(2′-methylsulfonylbiphenyl-4-yl)-2-[(3-amidinophenyl)-N-propylamino]acetamide] showed an IC50 (factor Xa, human) of 0.12 µM and an IC50 (TF/VIIa) of 0.031 µM.
In the case of `CC(C)CN(CC(=O)Nc1ccc(-c2ccccc2S(N)(=O)=O)cc1)c1cccc(C(=N)N)c1` [N-(2′-aminosulfonylbiphenyl-4-yl)-2-[(3-amidinophenyl)-N-isobutylamino]acetamide], the IC50 (factor Xa, human) is reported as 0.48 µM and the IC50 (TF/VIIa) is reported as 0.37 µM.
`CCCN(CC(=O)Nc1ccc(-c2ccccc2S(N)(=O)=O)cc1)c1cccc(C(=N)N)c1` [N-(2′-aminosulfonylbiphenyl-4-yl)-2-[(3-amidinophenyl)-N-propylamino]acetamide] was tested, and the IC50 (factor Xa, human) was 0.13 µM and the IC50 (TF/VIIa) was 0.044 µM.
In the case of `N=C(N)c1cccc(N(CC(=O)Nc2ccc(-c3ccccc3S(N)(=O)=O)cc2)Cc2ccccc2)c1` [N-(2′-aminosulfonylbiphenyl-4-yl)-2-[(3-amidinophenyl)-N-benzylamino]acetamide], the IC50 (factor Xa, human) is reported as 0.081 µM and the IC50 (TF/VIIa) is reported as 0.015 µM.

Reference: patent US20030166694A1, “Glycinamides” (priority 2000, published 2003)
